Source: ChEMBL document CHEMBL1201862, “PubChem BioAssay data set” (2004)
Calls of active or inactive are those of the source.

What was measured:
[1] = biological target: Sphingosine 1-phosphate receptor 2 (Homo sapiens, UniProt O95136); test: Dose Response Cell Based Assay for Agonists of the S1P2 Receptor of Purchased Analogues. [Related pubchem assays: 729, 843, 854, 736 ]; format: functional
[2] = biological target: T1, Neuropeptide Y receptor type 1 (Homo sapiens, UniProt P25929); test: Fluorescence-based dose response cell-based high-throughput screening assay for agonists of NPY-Y1. [Related pubchem assays: 1697 (Screening assay (NPY-Y1 agonists).), 1359 (Screening assay (NPY-Y2 potentiators or agonists).), 1304 (Screening assay (NPY-Y1 potentiators or agonists).), 1704 (Screening assay (CNGC inhibitors).), 1791 (Summary AID.)]; format: functional
T1 sequence (P25929 whole entry): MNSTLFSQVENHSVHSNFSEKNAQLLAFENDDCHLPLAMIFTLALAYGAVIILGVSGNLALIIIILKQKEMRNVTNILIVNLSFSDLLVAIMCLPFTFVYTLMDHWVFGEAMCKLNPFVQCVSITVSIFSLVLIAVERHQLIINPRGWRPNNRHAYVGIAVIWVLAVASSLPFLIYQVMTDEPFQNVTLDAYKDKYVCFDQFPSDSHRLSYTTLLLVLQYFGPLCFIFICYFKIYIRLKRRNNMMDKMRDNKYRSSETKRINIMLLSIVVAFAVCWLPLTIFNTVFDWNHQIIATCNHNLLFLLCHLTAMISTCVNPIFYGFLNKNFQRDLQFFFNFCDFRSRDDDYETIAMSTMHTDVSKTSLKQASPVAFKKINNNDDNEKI

[3] = biological target: T2, Neuropeptide Y receptor type 2 (Homo sapiens, UniProt P49146); test: Fluorescence counterscreen for potentiators or agonists of NPY-Y1: Cell-based high-throughput dose response assay for potentiators or agonists of NPY-Y2.; format: functional
T2 sequence (P49146 whole entry): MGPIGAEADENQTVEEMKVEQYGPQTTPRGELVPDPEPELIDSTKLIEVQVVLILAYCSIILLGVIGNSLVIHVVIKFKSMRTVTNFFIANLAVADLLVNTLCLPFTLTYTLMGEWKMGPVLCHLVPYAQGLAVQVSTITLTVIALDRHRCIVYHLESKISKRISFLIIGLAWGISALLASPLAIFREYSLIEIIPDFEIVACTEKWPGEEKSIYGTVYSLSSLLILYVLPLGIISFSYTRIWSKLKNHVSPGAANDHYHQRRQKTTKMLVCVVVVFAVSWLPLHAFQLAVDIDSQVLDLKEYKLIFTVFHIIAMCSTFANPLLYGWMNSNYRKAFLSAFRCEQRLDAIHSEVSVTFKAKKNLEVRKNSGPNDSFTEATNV

[4] = system: HEK293; test: Fluorescence-based counterscreen for potentiators or agonists of NPY-Y1: cell-based high-throughput dose response assay for inhibitors of cyclic nucleotide gated ion channel (CNGC) activity. In this assay, the parental HEK293 cell line transfected with a cyclic-nucleotide gated ion channel (CNGC)-based cAMP sensor is used to measure inhibition of isoproterenol-induced CNGC …; format: functional; conditions: Homo sapiens
[5] = ADAM10 protease inhibitors, dose response, selectivity assay for ADAM17 exosite inhibitor project, biochemical, FRET peptide substrate, recombinant human ADAM10 (AID 743259);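 also: ADAM10 enzyme cleaving a FRET peptide substrate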
[6] = biological target: Heat shock protein HSP 90-alpha (Homo sapiens, UniProt P07900); format: functional, organism-based
[7] = biological target: T1, Neuropeptide Y receptor type 1; test: Fluorescence-based dose response cell-based high-throughput screening assay for potentiators or agonists of NPY-Y1.; format: functional
[8] = biological target: T3, Mannose-6-phosphate isomerase (Homo sapiens, UniProt P34949); test: human PMI inhibitors, high substrate, primary screen, biochemical, fluorescence intensity, high mannose 6-phosphate (AID 1220)
T3 sequence (P34949 whole entry): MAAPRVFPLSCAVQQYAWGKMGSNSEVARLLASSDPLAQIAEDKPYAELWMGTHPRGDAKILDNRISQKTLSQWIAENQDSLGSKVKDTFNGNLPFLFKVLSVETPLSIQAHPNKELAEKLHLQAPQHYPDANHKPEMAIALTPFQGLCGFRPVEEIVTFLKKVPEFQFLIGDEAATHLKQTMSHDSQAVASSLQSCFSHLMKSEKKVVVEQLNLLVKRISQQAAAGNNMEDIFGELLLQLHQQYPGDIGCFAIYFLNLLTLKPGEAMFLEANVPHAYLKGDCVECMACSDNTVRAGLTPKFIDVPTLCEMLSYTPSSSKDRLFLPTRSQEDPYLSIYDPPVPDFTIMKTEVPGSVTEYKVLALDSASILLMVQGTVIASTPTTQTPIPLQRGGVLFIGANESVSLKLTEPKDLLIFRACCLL

[9] = biological target: T2, Neuropeptide Y receptor type 2; test: Fluorescence-based counterscreen for agonists of NPY-Y1: cell-based high-throughput dose response assay for agonists of NPY-Y2.; format: functional
[10] = biological target: Disintegrin and metalloproteinase domain-containing protein 17 (Homo sapiens, UniProt P78536); test: exosite inhibitors of ADAM17, dose response, biochemical (AID 743260)
Sequence of Disintegrin and metalloproteinase domain-containing protein 17 (P78536 whole entry, the tested form may be a part): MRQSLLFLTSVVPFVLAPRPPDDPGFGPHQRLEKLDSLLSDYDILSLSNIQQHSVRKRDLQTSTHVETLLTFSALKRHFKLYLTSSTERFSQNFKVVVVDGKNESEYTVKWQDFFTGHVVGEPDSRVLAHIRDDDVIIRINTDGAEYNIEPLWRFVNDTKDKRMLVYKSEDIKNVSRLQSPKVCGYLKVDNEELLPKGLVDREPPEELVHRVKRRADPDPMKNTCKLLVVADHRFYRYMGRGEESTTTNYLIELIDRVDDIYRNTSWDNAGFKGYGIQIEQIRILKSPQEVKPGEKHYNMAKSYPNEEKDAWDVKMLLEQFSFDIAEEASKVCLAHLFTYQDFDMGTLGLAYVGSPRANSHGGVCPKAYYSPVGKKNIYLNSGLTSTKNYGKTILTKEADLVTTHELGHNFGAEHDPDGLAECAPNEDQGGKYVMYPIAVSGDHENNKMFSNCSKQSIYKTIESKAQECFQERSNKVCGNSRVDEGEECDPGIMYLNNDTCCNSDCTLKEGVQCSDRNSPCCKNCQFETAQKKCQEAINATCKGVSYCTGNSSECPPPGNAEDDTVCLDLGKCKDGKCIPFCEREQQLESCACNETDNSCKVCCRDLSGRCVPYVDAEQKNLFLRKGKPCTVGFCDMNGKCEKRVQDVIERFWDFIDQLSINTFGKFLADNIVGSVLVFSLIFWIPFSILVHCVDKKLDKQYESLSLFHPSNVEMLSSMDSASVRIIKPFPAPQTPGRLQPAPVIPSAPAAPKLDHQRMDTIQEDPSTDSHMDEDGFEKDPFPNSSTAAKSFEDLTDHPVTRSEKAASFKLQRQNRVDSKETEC

[11] = human group III sPLA2 inhibitors, dose response, biochemical, QFRET, IC50 (AID 743457);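 also: green fluorescence rise as the enzyme cleaves BODIPY PC-A2 in liposomes; potency for inhibition of the enzyme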
[12] = biological target: Epstein-Barr nuclear antigen 1 (Epstein-Barr virus (strain B95-8) (HHV-4) (Human herpesvirus 4), UniProt P03211); test: EBNA-1 inhibitors, dose response, biochemical, fluorescence polarization, 1536-well (AID 2381); set-up: species or system human gammaherpesvirus 4;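 also: fluorescence polarization of a Cy5 DNA probe bound by EBNA-1 protein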
Sequence of Epstein-Barr nuclear antigen 1 (P03211 whole entry): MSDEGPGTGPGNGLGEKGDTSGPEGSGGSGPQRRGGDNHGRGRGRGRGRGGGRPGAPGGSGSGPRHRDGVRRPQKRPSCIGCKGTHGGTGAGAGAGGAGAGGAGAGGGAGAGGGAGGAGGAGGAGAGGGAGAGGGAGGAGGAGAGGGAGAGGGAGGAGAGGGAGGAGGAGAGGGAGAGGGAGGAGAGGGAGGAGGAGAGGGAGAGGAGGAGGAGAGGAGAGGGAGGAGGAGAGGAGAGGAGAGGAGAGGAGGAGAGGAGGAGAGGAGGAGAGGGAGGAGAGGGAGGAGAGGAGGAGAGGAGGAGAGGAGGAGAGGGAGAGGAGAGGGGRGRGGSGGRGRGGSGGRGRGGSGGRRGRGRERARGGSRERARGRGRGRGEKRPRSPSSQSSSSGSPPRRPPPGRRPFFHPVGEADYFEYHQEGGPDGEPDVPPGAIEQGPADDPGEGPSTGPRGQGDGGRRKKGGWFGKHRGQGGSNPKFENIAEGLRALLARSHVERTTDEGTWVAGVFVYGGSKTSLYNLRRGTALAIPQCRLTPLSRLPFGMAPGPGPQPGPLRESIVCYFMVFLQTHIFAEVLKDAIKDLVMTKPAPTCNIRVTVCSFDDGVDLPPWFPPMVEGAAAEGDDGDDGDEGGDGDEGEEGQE

[13] = biological target: Lytic switch protein BZLF1 (Epstein-Barr virus (strain B95-8) (HHV-4) (Human herpesvirus 4), UniProt P03206); test: EBV ZTA inhibitors, dose response, counter-screen for EBNA-1 inhibitor project, biochemical, fluorescence polarization, Epstein-Barr virus, 1536-well (AID 2377); set-up: species or system human gammaherpesvirus 4;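 also: fluorescence polarization of Cy5-labelled ZRE DNA probe bound by purified Zta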
Sequence of Lytic switch protein BZLF1 (P03206 whole entry): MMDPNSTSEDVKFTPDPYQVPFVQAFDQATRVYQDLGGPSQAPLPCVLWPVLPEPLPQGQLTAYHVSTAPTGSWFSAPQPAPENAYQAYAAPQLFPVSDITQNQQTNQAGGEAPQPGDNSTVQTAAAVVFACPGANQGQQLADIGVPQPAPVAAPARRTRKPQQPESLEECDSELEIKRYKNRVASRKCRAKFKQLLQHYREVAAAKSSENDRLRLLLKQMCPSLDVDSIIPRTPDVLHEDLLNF

[14] = biological target: Bcl-2-like protein 1 (Homo sapiens, UniProt Q07817); test: BCL-XL inhibitors, dose response, selectivity assay for MCL1 inhibitor project, biochemical, fluorescence polarization, 1536-well (AID 2218)
Sequence of Bcl-2-like protein 1 (Q07817 whole entry): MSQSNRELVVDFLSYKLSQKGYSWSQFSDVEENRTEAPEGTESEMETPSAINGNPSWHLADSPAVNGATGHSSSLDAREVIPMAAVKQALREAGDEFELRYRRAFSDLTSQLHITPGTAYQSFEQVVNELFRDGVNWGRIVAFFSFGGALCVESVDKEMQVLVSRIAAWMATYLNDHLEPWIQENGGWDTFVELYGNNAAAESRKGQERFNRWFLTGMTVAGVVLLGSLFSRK

[15] = biological target: T4, Histone-lysine N-methyltransferase NSD2 (Homo sapiens, UniProt O96028); format: biochemical
T4 sequence (O96028 whole entry): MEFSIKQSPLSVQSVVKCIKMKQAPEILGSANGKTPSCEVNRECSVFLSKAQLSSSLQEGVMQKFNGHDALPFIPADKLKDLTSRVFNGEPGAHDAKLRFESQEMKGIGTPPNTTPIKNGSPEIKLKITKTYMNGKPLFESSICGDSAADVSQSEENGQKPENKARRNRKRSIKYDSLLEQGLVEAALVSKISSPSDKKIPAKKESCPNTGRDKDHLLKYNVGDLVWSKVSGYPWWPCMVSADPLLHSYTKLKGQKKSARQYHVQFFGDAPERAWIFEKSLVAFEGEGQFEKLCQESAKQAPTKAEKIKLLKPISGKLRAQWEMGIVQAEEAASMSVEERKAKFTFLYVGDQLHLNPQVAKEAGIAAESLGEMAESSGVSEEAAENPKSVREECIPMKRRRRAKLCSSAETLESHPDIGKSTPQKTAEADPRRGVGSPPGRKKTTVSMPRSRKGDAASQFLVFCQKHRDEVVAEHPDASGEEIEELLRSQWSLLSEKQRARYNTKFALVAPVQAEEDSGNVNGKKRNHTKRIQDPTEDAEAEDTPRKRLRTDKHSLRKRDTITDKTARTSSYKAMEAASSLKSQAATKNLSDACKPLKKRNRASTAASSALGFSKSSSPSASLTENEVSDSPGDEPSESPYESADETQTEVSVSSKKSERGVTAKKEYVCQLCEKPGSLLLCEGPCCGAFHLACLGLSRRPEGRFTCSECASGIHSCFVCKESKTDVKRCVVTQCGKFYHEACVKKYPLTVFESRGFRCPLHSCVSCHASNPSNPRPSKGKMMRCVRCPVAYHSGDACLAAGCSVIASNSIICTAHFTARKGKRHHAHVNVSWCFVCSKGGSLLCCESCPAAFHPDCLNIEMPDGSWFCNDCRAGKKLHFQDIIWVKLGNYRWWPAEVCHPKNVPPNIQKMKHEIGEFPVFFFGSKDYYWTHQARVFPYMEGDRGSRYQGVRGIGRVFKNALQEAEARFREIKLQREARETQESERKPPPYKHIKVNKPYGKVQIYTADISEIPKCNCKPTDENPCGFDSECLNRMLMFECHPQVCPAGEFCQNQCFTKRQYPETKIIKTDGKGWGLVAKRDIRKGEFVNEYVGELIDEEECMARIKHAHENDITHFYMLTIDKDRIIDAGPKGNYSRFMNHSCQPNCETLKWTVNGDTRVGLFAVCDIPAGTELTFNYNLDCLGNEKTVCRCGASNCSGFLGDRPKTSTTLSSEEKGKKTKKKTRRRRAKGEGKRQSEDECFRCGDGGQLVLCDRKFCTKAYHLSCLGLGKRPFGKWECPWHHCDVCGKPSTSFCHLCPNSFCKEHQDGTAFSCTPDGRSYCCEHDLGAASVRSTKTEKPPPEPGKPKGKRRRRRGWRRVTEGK

[16] = biological target: Induced myeloid leukemia cell differentiation protein Mcl-1 (Homo sapiens, UniProt Q07820); test: MCL1-BIM BH3 interaction inhibitors, dose response, biochemical, fluorescence polarization, BIM-BH3 peptide, 1536-well (AID 2217)
Sequence of Induced myeloid leukemia cell differentiation protein Mcl-1 (Q07820 whole entry): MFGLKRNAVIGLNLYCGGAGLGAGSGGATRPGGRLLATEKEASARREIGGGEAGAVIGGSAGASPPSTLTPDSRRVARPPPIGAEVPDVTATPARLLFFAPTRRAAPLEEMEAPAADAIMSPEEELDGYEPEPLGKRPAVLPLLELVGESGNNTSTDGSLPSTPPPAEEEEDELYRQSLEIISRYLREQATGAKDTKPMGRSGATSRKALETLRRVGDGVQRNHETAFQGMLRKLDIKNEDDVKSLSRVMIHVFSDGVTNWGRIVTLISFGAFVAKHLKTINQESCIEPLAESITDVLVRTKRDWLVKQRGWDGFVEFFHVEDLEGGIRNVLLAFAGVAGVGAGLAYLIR

[17] = biological target: Alkaline phosphatase, placental type (Homo sapiens, UniProt P05187); test: PLAP enzyme inhibitors, confirmation, biochemical, luminescence (AID 1512); format: functional
Sequence of Alkaline phosphatase, placental type (P05187 whole entry): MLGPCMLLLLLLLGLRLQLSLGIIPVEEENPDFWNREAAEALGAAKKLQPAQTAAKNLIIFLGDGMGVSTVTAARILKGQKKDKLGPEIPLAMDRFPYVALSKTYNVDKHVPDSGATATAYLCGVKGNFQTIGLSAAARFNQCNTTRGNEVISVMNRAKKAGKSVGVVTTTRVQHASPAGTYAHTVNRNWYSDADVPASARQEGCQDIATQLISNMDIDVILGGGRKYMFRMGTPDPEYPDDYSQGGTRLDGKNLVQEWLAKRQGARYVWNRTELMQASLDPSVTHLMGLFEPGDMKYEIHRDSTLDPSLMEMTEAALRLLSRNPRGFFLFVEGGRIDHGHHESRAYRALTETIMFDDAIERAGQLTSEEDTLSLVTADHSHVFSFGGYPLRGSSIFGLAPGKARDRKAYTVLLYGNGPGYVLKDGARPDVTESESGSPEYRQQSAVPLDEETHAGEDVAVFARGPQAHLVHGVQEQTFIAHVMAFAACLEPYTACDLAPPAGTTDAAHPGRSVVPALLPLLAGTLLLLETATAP

[18] = biological target: Large T antigen (Simian virus 40, UniProt P03070); format: functional, Betapolyomavirus macacae;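 also: Confirmatory-stage PubChem screen for compounds that inhibit SV40 T antigen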
Sequence of Large T antigen (P03070 whole entry): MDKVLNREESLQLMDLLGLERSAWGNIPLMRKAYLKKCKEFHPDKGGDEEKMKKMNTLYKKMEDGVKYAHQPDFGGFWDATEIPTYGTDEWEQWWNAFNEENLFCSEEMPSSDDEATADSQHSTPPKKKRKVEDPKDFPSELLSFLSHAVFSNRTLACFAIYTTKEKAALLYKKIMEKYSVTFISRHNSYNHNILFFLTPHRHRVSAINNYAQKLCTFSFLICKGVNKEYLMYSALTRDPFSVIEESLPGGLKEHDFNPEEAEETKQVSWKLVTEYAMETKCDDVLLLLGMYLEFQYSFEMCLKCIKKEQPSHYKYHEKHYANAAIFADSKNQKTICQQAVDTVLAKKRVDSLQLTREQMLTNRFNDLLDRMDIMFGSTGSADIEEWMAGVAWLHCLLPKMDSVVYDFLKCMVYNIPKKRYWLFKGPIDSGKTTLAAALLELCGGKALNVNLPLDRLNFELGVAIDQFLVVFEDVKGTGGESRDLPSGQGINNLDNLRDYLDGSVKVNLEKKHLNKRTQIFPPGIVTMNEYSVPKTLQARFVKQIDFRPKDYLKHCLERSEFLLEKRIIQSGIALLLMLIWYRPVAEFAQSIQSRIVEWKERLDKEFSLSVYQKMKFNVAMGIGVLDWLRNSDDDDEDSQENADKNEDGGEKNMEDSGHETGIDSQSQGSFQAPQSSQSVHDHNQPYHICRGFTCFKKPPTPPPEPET

[19] = biological target: T5, Alkaline phosphatase, tissue-nonspecific isozyme (Homo sapiens, UniProt P05186); test: human TNAP enzyme inhibitors, SAR follow-up, biochemical, luminescent, dose response (AID 1056)
T5 sequence (P05186 whole entry): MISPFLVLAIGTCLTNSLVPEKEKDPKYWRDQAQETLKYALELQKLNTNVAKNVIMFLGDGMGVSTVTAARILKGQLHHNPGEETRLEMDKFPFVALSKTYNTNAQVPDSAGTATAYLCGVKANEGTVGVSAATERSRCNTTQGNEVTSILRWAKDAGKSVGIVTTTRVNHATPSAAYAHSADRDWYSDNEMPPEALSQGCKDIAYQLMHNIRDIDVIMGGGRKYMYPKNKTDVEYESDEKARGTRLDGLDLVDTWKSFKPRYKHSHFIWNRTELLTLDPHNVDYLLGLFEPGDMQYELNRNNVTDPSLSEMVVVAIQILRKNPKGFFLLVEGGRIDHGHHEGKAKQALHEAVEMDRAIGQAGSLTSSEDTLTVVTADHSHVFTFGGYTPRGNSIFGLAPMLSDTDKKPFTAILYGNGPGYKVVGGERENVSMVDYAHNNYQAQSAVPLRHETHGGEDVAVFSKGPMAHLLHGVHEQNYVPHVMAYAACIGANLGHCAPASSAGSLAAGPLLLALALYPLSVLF

[20] = inhibitors of Vif binding to APOBEC3G peptide, primary screen, biochemical, TR-FRET, GST-Vif 1-94, biotin-A3G peptide, dose response retest (AID 1117319); format: functional;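 also: TR-FRET signal of purified GST-Vif binding a biotinylated A3G peptide; inhibitors lower the FRET signal by blocking Vif and A3G binding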
[21] = biological target: NADPH oxidase 1 (Homo sapiens, UniProt Q9Y5S8); test: Luminescence-based cell-based dose response assay to identify inhibitors of NADPH oxidase 1 (NOX1).; format: functional
Sequence of NADPH oxidase 1 (Q9Y5S8 whole entry): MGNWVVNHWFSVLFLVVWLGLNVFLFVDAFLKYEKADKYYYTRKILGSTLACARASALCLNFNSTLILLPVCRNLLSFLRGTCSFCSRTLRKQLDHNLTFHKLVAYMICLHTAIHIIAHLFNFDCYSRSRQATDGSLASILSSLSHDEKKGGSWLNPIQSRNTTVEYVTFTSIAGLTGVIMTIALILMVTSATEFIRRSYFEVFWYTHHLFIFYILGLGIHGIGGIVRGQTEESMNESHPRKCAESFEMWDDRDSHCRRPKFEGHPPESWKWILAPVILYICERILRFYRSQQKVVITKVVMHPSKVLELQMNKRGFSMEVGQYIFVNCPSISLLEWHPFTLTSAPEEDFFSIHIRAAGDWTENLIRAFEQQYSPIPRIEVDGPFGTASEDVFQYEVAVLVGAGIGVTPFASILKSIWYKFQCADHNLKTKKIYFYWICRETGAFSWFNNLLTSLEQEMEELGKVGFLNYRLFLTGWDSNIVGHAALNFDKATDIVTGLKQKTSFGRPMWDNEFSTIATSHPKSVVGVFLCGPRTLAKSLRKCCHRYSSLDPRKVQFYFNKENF

[22] = cells
[23] = cytotoxicity toward NIH3T3 fibroblasts, dose response, counter-screen, cell-based, ATP luminescence, mouse fibroblasts (AID 2010); format: functional;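 also: cells exposed to compound for about 90 hours before reading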
[24] = inhibitors of intracellular T. cruzi replication, confirmation, NIH3T3 host cells, beta-gal luminescence (AID 2044); format: functional, cell-based;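 also: intracellular parasites grown in NIH/3T3 mouse fibroblasts as host cells; luminescent beta-galactosidase reporter signal from transgenic T. cruzi replicating inside host cells; inhibitors lower the luminescence signal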

Sequence of Sphingosine 1-phosphate receptor 2 (O95136 whole entry): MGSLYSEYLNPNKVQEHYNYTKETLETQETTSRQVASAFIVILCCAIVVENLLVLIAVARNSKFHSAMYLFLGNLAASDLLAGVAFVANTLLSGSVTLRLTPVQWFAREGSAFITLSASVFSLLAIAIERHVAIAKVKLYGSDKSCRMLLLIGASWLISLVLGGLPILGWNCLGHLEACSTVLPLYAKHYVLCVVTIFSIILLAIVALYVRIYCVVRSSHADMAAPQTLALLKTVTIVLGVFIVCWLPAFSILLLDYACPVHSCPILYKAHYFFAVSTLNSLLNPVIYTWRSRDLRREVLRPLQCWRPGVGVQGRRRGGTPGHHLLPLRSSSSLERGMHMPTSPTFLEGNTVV

For `Cc1cc(C(=O)COC(=O)C2CCC2)c(C)n1Cc1ccccc1`, the EC50 [1] was > 30 µM (not active).
For `CC(C)/N=c1\scc(-c2cccs2)n1/N=C/c1ccc(O)c(O)c1O`, the EC50 [2] was > 3.94 µM (active), the EC50 [3] was 22 µM (not active) and the IC50 [4] was > 35.4 µM (not active). The IC50 [5] was 12.8 µM (inactive), the AC50 [6] was 3.46 µM (active) and the EC50 [7] was > 35.4 µM (not active). For the same molecule, the IC50 [8] was > 50 µM (not active), the EC50 [9] was 24.3 µM (not active) and the IC50 [10] was 31.2 µM (inactive). For the same molecule, the IC50 [11] was 41.3 µM (inactive).
For `c1ccc(-c2ccc(C3=Nn4c(nnc4-c4cc(-c5ccccc5)[nH]n4)SC3)cc2)cc1`, the IC50 [12] was 16.1 µM (not active) and the IC50 [13] was > 111 µM (not active).
With `C=CCn1c(SCC(=O)c2ccc(O)c(O)c2)nnc1-c1cccnc1` the IC50 [14] was > 109 µM (not active), the AC50 [15] was 4.18 µM (active) and the IC50 [16] was 9.37 µM (active). The IC50 [17] was 2.92 µM (active), the IC50 [18] was 14.5 µM (active) and the IC50 [19] was 22.2 µM (active).
For `CN(C)c1ccc(NC(=O)Nc2cccc(Cl)c2)cc1`, the IC50 [20] was > 51.6 µM (active) and the IC50 [21] was 0.048 µM (active).
In the case of `CC(C)Cc1ccc(CN2CCCC(NC(=O)CSc3nncn3C)C2)cc1` (centres undefined), the EC50 [22] is reported as 0.071 µM (active), the EC50 [23] is reported as > 60 µM (not active) and the EC50 [24] is reported as < 0.1 µM (active).
